Experimental data: US20240148809A1, “CANNABIS PREVENTS NK IN[…] CANCER AND INCREASES NK FUNCTION” (The Regents of the University of California, priority 2020, published 2024)

Key:
[1] = system: PBMCs (IFN-γ); experiment: ELISPOT for IFN-γ spots in PBMCs of breast cancer patient P38/P77 treated with CBD; type: in vivo, human; details: in words
Description: FIG. 10A-FIG. 10B show results of an enzyme-linked immunospot (ELISPOT) assay that was conducted to determine the numbers of IFN-γ spots representing the number of cells expressing IFN-γ. Treated (IL2, IL2+antiCD16, IL2+antiCD3/28) and untreated PMBC cells of a breast cancer patient P38 (who was treated with CBD) compared to two healthy control subjects, H43 and H44 (FIG. 10A). Treated (IL2, IL2+antiCD16, IL2+antiCD3/28) and untreated PMBC cells of a breast cancer patient P77 VB (who was treated with CBD) compared to a healthy control subject, H74 (FIG. 10B).
80 μl of anti-human IFN-γ capture antibody was added to each well of a 96-well high-protein-binding PVDF filter plate and incubated overnight at 4° C. The plate was washed with […] of PBS once before adding samples into the plate. 50,000 cells in 200 μl of RPMI were added into each well and incubate at 37° C., 5% CO2 overnight. After incubation, the plate was washed twice with 200 μl PBS followed by 0.05% 200 μl Tween-PBS twice. […] of anti-human IFN-γ detection antibody was added into each well and incubated at room temperature for 2 hours and the plate was washed three times with 200 μI/well of 0.05% Tween-PBS. 80 μI/well of tertiary solution which was made from 1:1000 diluted Strep-AP was added in the plate and incubated for 30 minutes. […]

[2] = system: Oral Squamous Carcinoma Cells (OSCCs); experiment: Cell death assay in OSCCs (loss of forward scatter and propidium iodide staining, flow cytometry); type: cell-based, human; details: for % PI: Percent cell death induced in total population of tumor cells, as visualized by PI / % decrease in FS: Percent of cells that lost FS in total population of tumor cells: OSCC, overnight
Description: (§1) Oral Squamous Carcinoma Cells (OSCCs) and stem-like Oral Squamous Carcinoma Stem Cells (OSCSCs) were isolated from tumors of oral cancer patients at UCLA, and cultured in RPMI 1640 supplemented with 10% FBS (Gemini Bio-Products, CA, USA), 1.4% antibiotic antimycotic, 1% sodium pyruvate, 1.4% non-essential amino acids, 1% L-glutamine, 0.2% gentamicin (Gemini Bio-Products, CA, USA), and 0.15% sodium bicarbonate (Fisher Scientific, PA, USA).
(§2) OSCCs and OSCSCs were treated with different concentrations of Win55,2122-2 and cis-diamminedichloridoplatinum (II) (CDDP) as shown in FIGS. 1A-1B, FIG. 2 and Tables 1 and 2, and cultured overnight at 37 C in 5% CO2.
(§3) After an overnight incubation the cells were washed twice and stained with Propidium iodide at a concentration of […], as described by Jewett, A., et al., J Immunol, 1997. 159(10): p. 4815-22; Jewett, A. and B. Bonavida, J Clin Immunol, 1995. 15(1): p. 35-44; and Jewett, A. and B. Bonavida, J Immunol, 1996. 156(3): p. 907-15, each of which is incorporated herein by reference in its entirety.
(§4) Flow cytometric analysis was performed using Attune flow cytometer. Briefly, cells were analyzed based on Forward angle light scatter (FS) and Side scatter (SS), and the proportions of cells that had lost FS and became small were determined in total populations of tumor cells. Untreated and DMSO treated tumors were used as controls. In addition, the proportions of cells that were stained with PI were also determined.
OSCCs are differentiated oral squamous carcinoma cells; OSCCs were treated with different concentrations of Win55,2122-2, as indicated in FIGS. 1A-1B and Table 1.

[3] = system: Oral Squamous Carcinoma Stem Cells (OSCSCs); experiment: Cell death assay in OSCSCs (loss of forward scatter and propidium iodide staining, flow cytometry); type: cell-based, human; details: for % PI: propidium iodide staining / % of decrease in FS: Percent of cells that lost FS in total population of tumor cells: overnight
Description: as §1, §2, §3, §4
OSCSCs are stem like oral squamous carcinoma cells; OSCSCs were treated with different concentrations of Win55,2122-2, as indicated in FIG. 2 and Table 2.

[4] = system: NK cells in PBMCs (cytotoxicity against OSCSCs); experiment: 51Cr release assay with PBMCs of treated hu-BLT mice against OSCSCs; type: in vivo; details: IP for 27 days, PBMCs treated with IL-2 overnight, in words
Description: (§5) PBMCs (FIG. 11A and FIG. 11B) and CD3+ T cells (FIG. 11C) were isolated from hu-BLT mice after treatment of WIN 55,212-2 (intraperitoneal (IP) injection every 2 days at 2 mg/Kg in DMSO+saline for 27 days before sacrifice) or IL-15 (IP injection of 5 μg per mice for 27 days). PBMCs were isolated from peripheral blood and treated with IL-2 (1000 u/ml) overnight before they were used in 51 Cr release assay. The Lytic units (LU) 30/10^6 cells were determined by plotting the % cytotoxicity obtained at different effector to target ratios, and using that curve to determine the inverse number of NK cells required to lyse 30% of OSCSCs×100. The numbers of LU were then adjusted based on the % of NK cells obtained by flow cytometric analysis (FIG. 11A). PBMCs and CD3+ T cells culture supernatants were collected and IFN-γ secretions were determined using ELISA (FIG. 11B and FIG. 11C). CD3 T cells were isolated from splenocytes by negative selection of CD3+ T cells using an isolation kit (Stem cell technologies).

[5] = system: PBMCs (IFN-γ); experiment: IFN-γ ELISA of PBMC culture supernatants of treated hu-BLT mice; type: in vivo; details: IP for 27 days, in words
Description: as §5

[6] = system: CD3+ T cells (IFN-γ); experiment: IFN-γ ELISA of culture supernatants of CD3+ T cells from splenocytes of treated hu-BLT mice; type: in vivo; details: IP for 27 days, in words
Description: as §5

`C=C(C)[C@@H]1CCC(C)=C[C@H]1c1c(O)cc(CCCCC)cc1O` [CBD, Cannabidiol] was tested, and the “PBMC expression of IFN-γ (ELISPOT) compared to healthy control” value [1] was “Comparable”.

`N.N.[Cl][Pt][Cl]` [CDDP, cis-diamminedichloridoplatinum (II)] was tested, and the “% PI: Percent cell death induced in total population of tumor cells, as visualized by PI” value (“% PI: Percent cell death induced” below) ([2]; 30 μg/ml) was 23.8%, the “% decrease in FS: Percent of cells that lost FS in total population of tumor cells” value (“% decrease in FS: Percent” for short) ([2]; 30 μg/ml) was 51% and the “% PI: Percent cell death induced” value ([2]; 50 μg/ml) was 18.9%. For the same compound, the “% decrease in FS: Percent” value ([2]; 50 μg/ml) was 53%.

With `CS(=O)(=O)O.Cc1c(C(=O)c2cccc3ccccc23)c2cccc3c2n1[C@H](CN1CCOCC1)CO3` [Win55,2122-2, (R)-(+)-[2,3-Dihydro-5-methyl-3-(4-morpholinylmethyl)pyrrolo[1,2,3-de]-1,4-benzoxazin-6-yl]-1-naphthalenylmethanone mesylate] the “% PI: Percent cell death induced” value ([2]; 5 μM) was 23.1%, the “% decrease in FS: Percent” value ([2]; 5 μM) was 52% and the “% PI: Percent cell death induced” value ([2]; 25 μM) was 32.9%. For the same compound, the “% decrease in FS: Percent” value ([2]; 25 μM) was 75%, the “% PI: Percent cell death induced” value ([2]; 50 μM) was 51.6% and the “% decrease in FS: Percent” value ([2]; 50 μM) was 78%. For the same compound, the “% PI: Percent cell death induced” value ([2]; 100 μM) was 51.6%, the “% decrease in FS: Percent” value ([2]; 100 μM) was 77% and the “induction of cell death in differentiated oral tumors” value ([2]; OSCCs, in words) was “potent inducer of cell death”. The “% PI: propidium iodide staining” value ([3]; 5 μM) was 11.5%, the “% of decrease in FS: Percent of cells that lost FS in total population of tumor cells” value (from here on “% of decrease in FS: Percent … of tumor cells”) ([3]; 5 μM) was 15% and the “% PI: propidium iodide staining” value ([3]; 25 μM) was 26.3%. The “% of decrease in FS: Percent … of tumor cells” value ([3]; 25 μM) was 24%, the “% PI: propidium iodide staining” value ([3]; 50 μM) was 21.7% and the “% of decrease in FS: Percent … of tumor cells” value ([3]; 50 μM) was 16%. The “cell death by staining with PI” value ([3]; compared to untreated or DMSO treated tumors, in words) was “no or moderate levels of cell death”, the “change of FS” value ([3]; even at the higher concentrations, in words) was “did not change FS” and the “NK cell mediated cytotoxicity in PBMC” value [4] was “higher”. The “IFN-γ secretion in PBMC” value [5] was “higher” and the “IFN-γ secretion in CD3+ T cells” value [6] was “higher”.

With “IL-15: IL-15, IP injection of 5 μg per mice for 27 days in hu-BLT mice” the “NK cell mediated cytotoxicity in PBMC” value [4] was “higher” and the “IFN-γ secretion in CD3+ T cells” value [6] was “higher”.
